# Assay results from patent US7659404B2, “Broad spectrum 2-(substituted-amino)-benzothiazole sulfonamide HIV protease inhibitors” (Tibotec Pharmaceuticals Ltd., priority 2001, dated 2010).
# Key:
# wild type virus (IIIB) = experiment: HIV-AVE-MT4-MTT cellular assay, wild type virus (IIIB); assay type: cell-based; details: MT4 cells, MTT; for EC50: Human immunodeficiency virus 1, IIIB, MT4, wild type virus (IIIB), read-out: HIV-AVE-MT4-MTT-IIIB-2-002 pEC50 (converted); for HIV-AVE-MT4-MTT-IIIB-2-002 pEC50: wild type virus (IIIB)
# Procedure: (§1) HIV- or mock-infected MT4 cells were incubated for five days in the presence of various concentrations of the inhibitor. At the end of the incubation period, all HIV-infected cells have been killed by the replicating virus in the control cultures in the absence of any inhibitor. Cell viability is measured by measuring the concentration of MTT, a yellow, water soluble tetrazolium dye that is converted to a purple, water insoluble formazan in the mitochondria of living cells only. Upon solubilization of the resulting formazan crystals with isopropanol, the absorbance of the solution is monitored at 540 nm. The values correlate directly to the number of living cells remaining in the culture at the completion of the five day incubation. The inhibitory activity of the compound was monitored on the virus-infected cells and was expressed as EC50 and EC90. These values represent the amount of the compound required to protect 50% and 90%, respectively, of the cells from the cytopathogenic effect of the virus. The toxicity of the compound was measured on the mock-infected cells and was expressed as CC50, which represents the concentration of compound required to inhibit the growth of the cells by 50%. The selectivity index (SI) (ratio CC50/EC50) is an indication of the selectivity of the anti-HIV activity of the inhibitor.
# virus strain F (R13025) = experiment: microbe, parasite or virus in culture; assay type: cell-based, HIV; details: for EC50: Human immunodeficiency virus 1, MT4, read-out: HIV-AVE-MT4-MTT-R13025-2-002 pEC50, virus strain F (R13025), MT4 cells, MTT (converted); for HIV-AVE-MT4-MTT-R13025-2-002 pEC50: virus strain F (R13025), MT4 cells
# Procedure: as §1, with “At the end of the incubation period, all HIV-infected cells have been killed by the replicating virus in the control cultures in the absence of any inhibitor.” left out
# (§2) Because of the increasing emergence of drug resistant HIV strains, the present compounds were tested for their potency against clinically isolated HIV strains harboring several mutations.
# (§3) As a measure of the broad spectrum activity of the present compounds, the fold resistance (FR) defined as FR=EC50(mutant strain)/EC50(HIV-1 strain LAI).
# virus strain S (R13080) = experiment: microbe, parasite or virus in culture; assay type: cell-based, HIV; details: for EC50: Human immunodeficiency virus 1, MT4, read-out: HIV-AVE-MT4-MTT-R13080-2-002 pEC50, virus strain S (R13080), MT4 cells, MTT (converted); for HIV-AVE-MT4-MTT-R13080-2-002 pEC50: virus strain S (R13080), MT4 cells
# Procedure: as §1, with “At the end of the incubation period, all HIV-infected cells have been killed by the replicating virus in the control cultures in the absence of any inhibitor.” left out
# as §2, §3
SMILES,EC50 (wild type virus (IIIB)),EC50 (virus strain F (R13025)),EC50 (virus strain S (R13080)),HIV-AVE-MT4-MTT-IIIB-2-002 pEC50 (wild type virus (IIIB)),HIV-AVE-MT4-MTT-R13025-2-002 pEC50 (virus strain F (R13025)),HIV-AVE-MT4-MTT-R13080-2-002 pEC50 (virus strain S (R13080))
Cc1cccc(C)c1OCC(=O)N[C@@H](Cc1ccccc1)[C@H](O)CN(CC(C)C)S(=O)(=O)c1ccc2nc(NC(=O)c3cccc(O)c3C)sc2c1 [Compound 117],47.9 nM,35.5 nM,191 nM,,,
CC(=O)NCCNc1nc2ccc(S(=O)(=O)N(CC(C)C)C[C@@H](O)[C@H](Cc3ccccc3)NC(=O)OC(C)(C)C)cc2s1 [Compound 121],20.9 nM,2820 nM,10000 nM,,,
Cc1cccc(C)c1OCC(=O)N[C@@H](Cc1ccccc1)[C@H](O)CN(CC(C)C)S(=O)(=O)c1ccc2nc(NC(=O)c3ccncc3)sc2c1 [Compound 125],6.31 nM,26.9 nM,145 nM,,,
CC(C)CN(C[C@@H](O)[C@H](Cc1ccccc1)NC(=O)OC(C)(C)C)S(=O)(=O)c1ccc2nc(NCCN3CCCC3)sc2c1 [Compound 126],49 nM,3160 nM,10000 nM,,,
Cc1cccc(C)c1OCC(=O)N[C@@H](Cc1ccccc1)[C@H](O)CN(CC(C)C)S(=O)(=O)c1ccc2nc(NC(=O)C3CCN(C)CC3)sc2c1 [Compound 127],16.6 nM,31.6 nM,135 nM,,,
Cc1cccc(C)c1OCC(=O)N[C@@H](Cc1ccccc1)[C@H](O)CN(CC(C)C)S(=O)(=O)c1ccc2nc(NC(=O)C3CCCN(C)C3)sc2c1 (stereo partly drawn) [Compound 128],5.89 nM,19.1 nM,56.2 nM,,,
Cc1cccc(C)c1OCC(=O)N[C@@H](Cc1ccccc1)[C@H](O)CN(CC(C)C)S(=O)(=O)c1ccc2nc(NCc3ccncc3)sc2c1 [Compound 131],46.8 nM,832 nM,1050 nM,,,
CC(=O)NCCNc1nc2ccc(S(=O)(=O)N(CC(C)C)C[C@@H](O)[C@H](Cc3ccccc3)NC(=O)COc3c(C)cccc3C)cc2s1 [Compound 133],21.4 nM,33.9 nM,158 nM,,,
Cc1cccc(C)c1OCC(=O)N[C@@H](Cc1ccccc1)[C@H](O)CN(CC(C)C)S(=O)(=O)c1ccc2nc(N3CCCC3C(=O)O)sc2c1 (stereo partly drawn) [Compound 139],2090 nM,3090 nM,10000 nM,,,
CC(C)CN(C[C@@H](O)[C@H](Cc1ccccc1)NC(=O)O[C@H]1CO[C@H]2OCC[C@H]21)S(=O)(=O)c1ccc2nc(N(C)CCCN(C)C)sc2c1 [Compound 141],,,,7.83,6.49,6.02
COC(=O)CCNc1nc2ccc(S(=O)(=O)N(CC(C)C)C[C@@H](O)[C@H](Cc3ccccc3)NC(=O)OC(C)(C)C)cc2s1 [Compound 143],74.1 nM,10000 nM,10000 nM,,,
Cc1cccc(C)c1OCC(=O)Nc1nc2ccc(S(=O)(=O)N(CC(C)C)C[C@@H](O)[C@H](Cc3ccccc3)NC(=O)COc3c(C)cccc3C)cc2s1 [Compound 145],12.6 nM,39.8 nM,145 nM,,,
CC(C)CN(C[C@@H](O)[C@H](Cc1ccccc1)NC(=O)OC1CCSC1)S(=O)(=O)c1ccc2nc(NCCN(C)C)sc2c1 (stereo partly drawn) [Compound 146],9.55 nM,302 nM,1000 nM,,,
CNCCNc1nc2ccc(S(=O)(=O)N(CC(C)C)C[C@@H](O)[C@H](Cc3ccccc3)NC(=O)OCc3cncs3)cc2s1 [Compound 150],42.7 nM,162 nM,661 nM,,,
CC(C)CN(C[C@@H](O)[C@H](Cc1ccccc1)NC(=O)OCc1cncs1)S(=O)(=O)c1ccc2nc(N3CCN(C)C3=O)sc2c1 [Compound 151],107 nM,813 nM,2690 nM,,,
CC(C)CN(C[C@@H](O)[C@H](Cc1ccccc1)NC(=O)OCc1cncs1)S(=O)(=O)c1ccc2nc(N(C)C(=O)c3cc(ON)cc(ON)c3)sc2c1 [Compound 152],33.1 nM,562 nM,1740 nM,,,
CC(C)CN(C[C@@H](O)[C@H](Cc1ccccc1)NC(=O)OCc1cncs1)S(=O)(=O)c1ccc2nc(N(C)C(=O)c3cccnc3)sc2c1 [Compound 153],7.41 nM,45.7 nM,339 nM,,,

SMILES,EC50 (wild type virus (IIIB)),EC50 (virus strain F (R13025)),EC50 (virus strain S (R13080)),HIV-AVE-MT4-MTT-IIIB-2-002 pEC50 (wild type virus (IIIB)),HIV-AVE-MT4-MTT-R13025-2-002 pEC50 (virus strain F (R13025)),HIV-AVE-MT4-MTT-R13080-2-002 pEC50 (virus strain S (R13080))
CC(C)CN(C[C@@H](O)[C@H](Cc1ccccc1)NC(=O)OCc1cncs1)S(=O)(=O)c1ccc2nc(N(C)C(=O)c3ccccn3)sc2c1 [Compound 154],5.5 nM,38 nM,372 nM,,,
CC(C)CN(C[C@@H](O)[C@H](Cc1ccccc1)NC(=O)OCc1cncs1)S(=O)(=O)c1ccc2nc(NC(=O)CN3CCNCC3)sc2c1 [Compound 155],42.7 nM,24.5 nM,,,,7.49
CC(C)CN(C[C@@H](O)[C@H](Cc1ccccc1)NC(=O)OCc1cncs1)S(=O)(=O)c1ccc2nc(NC(=O)CN3CCN(C)CC3)sc2c1 [Compound 156],7.24 nM,,27.5 nM,,8.27,
CC(C)CN(C[C@@H](O)[C@H](Cc1ccccc1)NC(=O)OCc1cncs1)S(=O)(=O)c1ccc2nc(NC(=O)CN3CCNCC3)sc2c1 [Compound 157],,,,7.54,7.5,6.85
CC(C)CN(C[C@@H](O)[C@H](Cc1ccccc1)NC(=O)OCc1cncs1)S(=O)(=O)c1ccc2nc(NC(=O)CN3CCOCC3)sc2c1 [Compound 158],3.31 nM,7.94 nM,30.2 nM,,,
CC(C)CN(C[C@@H](O)[C@H](Cc1ccccc1)NC(=O)OCc1cncs1)S(=O)(=O)c1ccc2nc(NC(=O)CN3CCN(C)CC3)sc2c1 [Compound 159],,,,8.1,7.78,7.46
CC(C)CN(C[C@@H](O)[C@H](Cc1ccccc1)NC(=O)OCc1cncs1)S(=O)(=O)c1ccc2nc(C(C)C(=O)CCCC(=O)O)sc2c1 (stereo partly drawn) [Compound 160],51.3 nM,479 nM,2450 nM,,,
CC(C)CN(C[C@@H](O)[C@H](Cc1ccccc1)NC(=O)OCc1cncs1)S(=O)(=O)c1ccc2nc(NC(=O)C3CCC(=O)N3)sc2c1 (stereo partly drawn) [Compound 161],9.12 nM,17.4 nM,33.9 nM,,,
CC(C)CN(C[C@@H](O)[C@H](Cc1ccccc1)NC(=O)OCc1cncs1)S(=O)(=O)c1ccc2nc(NC(=O)c3cc(ON)cc(ON)c3)sc2c1 [Compound 162],20.4 nM,46.8 nM,158 nM,,,
CC(C)CN(C[C@@H](O)[C@H](Cc1ccccc1)NC(=O)OCc1cncs1)S(=O)(=O)c1ccc2nc(NC(=O)c3cccnc3)sc2c1 [Compound 163],11.5 nM,49 nM,214 nM,,,
CC(C)CN(C[C@@H](O)[C@H](Cc1ccccc1)NC(=O)OCc1cncs1)S(=O)(=O)c1ccc2nc(NC(=O)c3ccoc3)sc2c1 [Compound 164],7.08 nM,33.9 nM,158 nM,,,
CC(C)CN(C[C@@H](O)[C@H](Cc1ccccc1)NC(=O)OCc1cncs1)S(=O)(=O)c1ccc2nc(NC(=O)c3ccccn3)sc2c1 [Compound 165],44.7 nM,123 nM,631 nM,,,
CC(C)CN(C[C@@H](O)[C@H](Cc1ccccc1)NC(=O)OCc1cncs1)S(=O)(=O)c1ccc2nc(NC(=O)[C@@H]3CCCN3C)sc2c1 [Compound 166],6.31 nM,21.9 nM,74.1 nM,,,
CC(C)CN(C[C@@H](O)[C@H](Cc1ccccc1)NC(=O)OCc1cncs1)S(=O)(=O)c1ccc2nc(NC(=O)OC(C)C)sc2c1 [Compound 167],4.9 nM,30.9 nM,141 nM,,,
CC(C)CN(C[C@@H](O)[C@H](Cc1ccccc1)NC(=O)OCc1cncs1)S(=O)(=O)c1ccc2nc(NC(=O)c3ccncc3)sc2c1 [Compound 168],24.5 nM,31.6 nM,135 nM,,,
CC(=O)Nc1nc2ccc(S(=O)(=O)N(CC(C)C)C[C@@H](O)[C@H](Cc3ccccc3)NC(=O)OCc3cncs3)cc2s1 [Compound 169],8.51 nM,6.76 nM,35.5 nM,,,
